One block for each compound: values may come before it.
Experiments:
NAALADase = target: T1, NAALADase (Homo sapiens, UniProt Q04609); test: In vitro inhibition of NAALADase activity; format: biochemical; conditions: average IC50 values
T1 construct: from tissue; host or cells: unspecified "tissue"
Method: Various compounds of the invention were tested for in vitro inhibition of NAALADase activity.
The following were combined in assay tubes: 100 μL of 10 mM CoCl2, 250 μof 200 mM Tris chloride, 100 μL tissue, 100 μL of 10 mM NAALADase inhibitor in Bakers H2O, and Bakers H2O to make a total volume of 950 μL. Each assay tube was then incubated for 10 minutes in a 37 EC water bath. […] The assay was stopped by adding 1.0 ml of 0.1 M sodium phosphate.
Glutamate released by the action of the NAALADase enzyme was separated from the assay solution using an anion exchange resin. The resin was equilibrated to 25 EC, 2.0 ml of the resin was added to a Pasteur pipette pre-loaded with a single glass bead, and each column was washed twice with distilled H2O. A column was placed over a scintillation vial and 200 μL of an assay sample was loaded onto the column. After draining, glutamate was eluted using two 1.0 ml washes of 1 M formic acid. After addition of 10 ml of scintillation cocktail, each sample was counted for 2 minutes on a scintillation counter.

STZ-diabetic rats [1] = test: Reversal of diabetic neuropathy in STZ model, delayed dosing; format: in vivo, rat; conditions: for neuropathic hyperalgesia / motor nerve conduction velocity: daily p.o.; for neuropathic hyperalgesia: treatment from 5 weeks post STZ, within two weeks of treatment; for motor nerve conduction velocity: within 8 weeks of dosing, persisted through 12 weeks
Method: Rats (200–225 grams) were injected with STZ (70 mg/kg) into the tail vein. Diabetes (>350 mg/dl) was confirmed in all rats, 4 weeks after STZ administration. Rats were left untreated until 35–49 days after STZ. Compound D (1, 3, or 10 mg/kg), Compound E (10 mg/kg), or vehicle were dosed daily p.o. following confirmation of hyperalgesia and/or nerve conduction velocity deficits. In separate experiments, onset of treatment was delayed until 60 to 90 days after STZ administration. Nerve conduction velocity or withdrawal response to thermal stimulation of hind paws was measured at intervals, usually bi-weekly for thermal response and monthly for nerve conduction velocity.
Sensory and motor nerve conduction velocities were evaluated using the method of De Koning and Gispen (Peptides 8: 415–422, 1987). Electrophysiological evaluation was carried out within one hour of dosing. Animals were anesthetized with isoflurane and stimulating needle electrodes were inserted close to the sciatic nerve at the sciatic notch and the tibial nerve near the ankle. Recording electrodes were placed over the foot muscles. Stimuli were applied and responses recorded. Motor and sensory nerve conduction velocities were calculated by measuring the distance between the sciatic notch and ankle sites, and the latency between the M-wave and the H-reflex.
Animals were acclimated to the apparatus for at least 5 min. An infra-red source was placed under below the plantar surface of the rat hind-paw. The intensity of the source was adjusted so that latency for normal rats was about 10 secs. Animals were tested for thermal response latency according to the method of Hargreaves et al (Pain 77–88, 1988). Each animal was tested 8 times (4 each hind limb) and the latency of response recorded automatically to nearest 0.1 sec. An average of the last 4 measurements for each paw was calculated (8 total measurements) and noted for each rat.

STZ-diabetic rats [2] = test: Neuropathic pain in STZ model (thermal withdrawal latency); format: in vivo, rat; conditions: 10 mg/kg i.p. daily, treatment from 45 days post STZ
Method: Male Sprague-Dawley rats (200–225 g) were rendered diabetic by intravenous administration of streptozotocin (“STZ”, 70 mg/kg in phosphate buffered saline). Diabetic animals were divided into five groups: one group receiving Compound A (10 mg/kg or 1 mg/kg), Compound D (10 mg/kg or 1 mg/kg) or vehicle. Another group of animals (non-STZ treated) served as non-diabetic controls. Drug/vehicle treatment was started in diabetic animals 45 days post-STZ administration. STZ-induced diabetic rats were tested for sensitivity to a heat source as soon as blood glucose levels rose to 320 mg/dl or above (30 days post STZ). The rats were then acclimated to a Hargreaves apparatus and thermal nociception was monitored using an infrared heat source directed into the dorsal surface of the hindpaw, and the time taken for the animal to remove its paw noted to the nearest 0.1 seconds (see Hargreaves et al., supra, for detailed experimental method). The intensity of the beam source was adjusted such that the mean latency for control animals (non-STZ treated) was approximately 10 seconds. Each animal was tested 8 times and the mean difference score (between mean non-diabetic control latency and mean diabetic latency) are graphically presented in FIGS. 7A and 7B.

BB/W diabetic rats = test: Progression of neuropathic pain and nerve conduction deficits in BB/W model; format: in vivo, rat
From the text: Male BB/W rats (BRI, Mass) spontaneously develop a cell mediated autoimmune destruction of pancreatic B cells, resulting in onset of insulin-dependent (Type I) diabetes (Guberski 1994). […] This renders them valuable for experimental trials of new compounds for future treatments of this major disorder. In the present study, Compound D and Compound A were examined for their ability to alter the progression of diabetic neuropathy. The rats received daily injection of Compound D or Compound A (10 mg/kg i.p.) or vehicle, starting at the onset of diabetes (hyperglycemia) and up to 6 months thereafter. Another group of non-diabetic rats also receiving vehicle were tested. All animals were continuously monitored for body weight, urine volume, blood sugar and glycated haemoglobin. In the first month of the study, all animals were tested for thermal nociception in a Hargreaves apparatus, weekly. After the first month this was done biweekly and then monthly. The testing consists of directing an infrared heat source onto the dorsal surface of the rat hindpaw and noting the time taken for the animal to remove its paw (see Hargreaves et al., supra, for a description of the experimental method). Each animal was tested 8 times and the mean withdrawal latency noted.
Nerve conduction velocity was also measured every two weeks through the first eight weeks of treatment and every month thereafter through to the six months of treatment (see De Koning et al., Peptides, Vol. 8, No. 3, pp. 415–22 (1987) for a description of the experimental method). […] This was apparent starting at 8 weeks of treatment and persisted to a similar degree through to the six month termination point of the study.

STZ-diabetic rats [3] = test: Diabetic neuropathy in STZ model (nerve conduction velocity); format: in vivo, rat
Method: Motor and sensory nerve conduction velocity was also measured in STZ-diabetic animals after 4, 8 and 12 weeks of treatment (see De Koning et al., supra, for a description of the experimental method). Briefly, stimulating needle electrodes were inserted close to the sciatic and tibial nerves with recording electrodes being placed subcutaneously over the distal foot muscles, in anesthetized rats.

T1 sequence (Q04609 whole entry): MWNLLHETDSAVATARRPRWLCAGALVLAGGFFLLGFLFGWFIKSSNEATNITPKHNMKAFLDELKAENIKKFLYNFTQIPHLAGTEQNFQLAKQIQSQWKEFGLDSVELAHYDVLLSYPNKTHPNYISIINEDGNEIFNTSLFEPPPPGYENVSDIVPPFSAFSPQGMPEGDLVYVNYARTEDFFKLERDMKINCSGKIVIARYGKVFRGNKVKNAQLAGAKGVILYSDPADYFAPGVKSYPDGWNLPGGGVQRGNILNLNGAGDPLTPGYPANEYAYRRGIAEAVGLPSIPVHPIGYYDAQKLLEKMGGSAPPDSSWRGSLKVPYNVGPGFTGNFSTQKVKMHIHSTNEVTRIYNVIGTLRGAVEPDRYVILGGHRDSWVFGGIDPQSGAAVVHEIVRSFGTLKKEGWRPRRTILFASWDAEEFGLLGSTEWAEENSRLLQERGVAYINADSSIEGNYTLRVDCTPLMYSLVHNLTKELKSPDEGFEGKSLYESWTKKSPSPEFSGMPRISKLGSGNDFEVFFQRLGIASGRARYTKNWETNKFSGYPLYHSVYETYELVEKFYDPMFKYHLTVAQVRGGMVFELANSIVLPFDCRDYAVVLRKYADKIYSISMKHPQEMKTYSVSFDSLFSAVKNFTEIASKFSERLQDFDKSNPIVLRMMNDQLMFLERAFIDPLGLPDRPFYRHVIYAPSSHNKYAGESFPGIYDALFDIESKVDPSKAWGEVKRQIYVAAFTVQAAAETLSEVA

SMILES: O=C(O)c1cccc(Cn2c(C(=O)O)c(CCS)c3ccccc32)c1 [Compound 3, 1-[(3-carboxyphenyl)methyl]-3-(2-mercaptoethyl)-1H-indole-2-carboxylic acid]
IC50 (NAALADase): 55.3 nM

SMILES: O=C(O)c1cccc(CC(CCCS)C(=O)O)c1 (stereo not drawn) [Compound E, 3-carboxy-alpha-(3-mercaptopropyl)benzenepropanoic acid]
neuropathic hyperalgesia (STZ-diabetic rats [1]; STZ rats): reversed towards normal
motor nerve conduction velocity (STZ-diabetic rats [1]; STZ rats): reversed the motor nerve conduction velocity towards normal

SMILES: O=C(O)c1ccc(Br)c(Cn2c(C(=O)O)c(CCS)c3ccccc32)c1 [Compound 4, 1-[(2-bromo-5-carboxyphenyl)methyl]-3-(2-mercaptoethyl)-1H-indole-2-carboxylic acid]
IC50 (NAALADase): 54.3 nM

SMILES: O=C(O)c1[nH]c2c(C(=O)O)cccc2c1CCS [Compound 2, 3-(2-mercaptoethyl)-1H-indole-2,7-dicarboxylic acid]
IC50 (NAALADase): 760 nM

SMILES: O=C(O)c1[nH]c2ccccc2c1CCS [Compound 1, 3-(2-mercaptoethyl)-1H-indole-2-carboxylic acid]
IC50 (NAALADase): 1240 nM

SMILES: O=C(O)CCC(CCS)C(=O)O (stereo not shown) [Compound D, 2-(2-sulfanylethyl)-pentanedioic acid]
sensory and motor nerve conduction velocity deficits (STZ-diabetic rats [1]; STZ rats untreated until 60 days after STZ, external CRO): Partial reversal
neuropathic pain abnormalities (STZ-diabetic rats [1]; STZ rats, 1 and 3 mg/kg, treatment from 7 weeks post STZ): Significant reduction
motor nerve conduction (STZ-diabetic rats [1]; STZ rats, 1 and 3 mg/kg, treatment from 7 weeks post STZ, 8 weeks after dosing): remained unimproved
sensory nerve conduction (STZ-diabetic rats [1]; STZ rats, 1 and 3 mg/kg, treatment from 7 weeks post STZ, within 4 weeks of treatment): significantly improved towards normal
neuropathic hyperalgesia (STZ-diabetic rats [1]; STZ rats): reversed towards normal
motor nerve conduction velocity (STZ-diabetic rats [1]; STZ rats): reversed the motor nerve conduction velocity towards normal
hyperalgesic response (withdrawal latency difference score) (STZ-diabetic rats [2]): completely reversed
nerve conduction velocity deficits versus diabetic vehicle controls (BB/W diabetic rats; 10 mg/kg daily, from 8 weeks to six months): significantly less severe nerve conduction deficits
withdrawal latency versus diabetic vehicle-treated rats (BB/W diabetic rats; 10 mg/kg i.p. daily, from 4 weeks through six months of treatment): longer withdrawal latencies
motor and sensory nerve conduction velocities (STZ-diabetic rats [3]; 1 mg/kg): increased
motor and sensory nerve conduction velocities (STZ-diabetic rats [3]; 10 mg/kg daily, 4, 8 and 12 weeks): increased

SMILES: O=C(O)c1ccc(Cn2c(C(=O)O)c(CCS)c3ccccc32)cc1 [Compound 5, 1-[(4-carboxyphenyl)methyl]-3-(2-mercaptoethyl)-1H-indole-2-carboxylic acid]
IC50 (NAALADase): 66.5 nM

More lines, now with the values ahead:

IC50 (NAALADase): 104 nM
SMILES: O=C(O)c1cc(Cn2c(C(=O)O)c(CCS)c3ccccc32)ccc1Br [Compound 9, 1-[(4-bromo-3-carboxyphenyl)methyl]-3-(2-mercaptoethyl)-1H-indole-2-carboxylic acid]

IC50 (NAALADase): 12 nM
SMILES: COc1ccc(C(=O)O)c(Cn2c(C(=O)O)c(CCS)c3ccccc32)c1 [Compound 10, 1-[(2-carboxy-5-methoxyphenyl)methyl]-3-(2-mercaptoethyl)-1H-indole-2-carboxylic acid]

IC50 (NAALADase): 18.5 nM
SMILES: O=C(O)c1ccccc1Cn1c(C(=O)O)c(CCS)c2ccccc21 [Compound 7, 1-[(2-carboxyphenyl)methyl]-3-(2-mercaptoethyl)-1H-indole-2-carboxylic acid]

IC50 (NAALADase): 4740 nM
SMILES: O=C(O)c1c(CCS)c2ccccc2n1-c1ccccc1 [Compound 11, 3-(2-mercaptoethyl)-1-phenyl-1H-indole-2-carboxylic acid]

IC50 (NAALADase): 12100 nM
SMILES: O=C(O)c1c(CCS)c2ccccc2n1Cc1ccccc1 [Compound 6, 3-(2-mercaptoethyl)-1-(phenylmethyl)-1H-indole-2-carboxylic acid]

IC50 (NAALADase): 35 nM
SMILES: CC(C)(C)c1cc(Cn2c(C(=O)O)c(CCS)c3ccccc32)cc(C(=O)O)c1 [Compound 8, 1-[[3-carboxy-5-(1,1-dimethylethyl)-phenyl]methyl]-3-(2-mercaptoethyl)-1H-indole-2-carboxylic acid]

IC50 (NAALADase): 44000 nM
SMILES: O=C(O)c1c(CCS)c2ccccc2n1CCc1ccccc1 [Compound 12, 3-(2-mercaptoethyl)-1-(2-phenylethyl)-1H-indole-2-carboxylic acid]

— patent publication US7148250B2, “Indoles as NAALADase inhibitors” (Guilford Pharmaceuticals Inc., priority 2001, dated 2006)
